# In the supplement of paper PMC10307832:
# Assays:
# Experiment in all cases: relative viability (nuclei count vs DMSO), 5 days (fraction); higher = more cells survive
# Dasatinib + OSI-027 = compound: Cc1nc(Nc2ncc(C(=O)Nc3c(C)cccc3Cl)s2)cc(N2CCN(CCO)CC2)n1 [Dasatinib] + COc1cccc2cc(-c3nc([C@H]4CC[C@H](C(=O)O)CC4)n4ncnc(N)c34)[nH]c12 [OSI-027] (partner 0.5 µM)
# Method in brief: (§1)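 One day after seeding in 1536-well plates, lung cancer cell lines were dosed by pin tool. Dosing was either single-drug or a fixed anchor-drug dose plus five library-drug doses (not always all listed) in √10 steps. After 5 days, nuclei were stained in one fix-and-stain step and counted on 4× images, and relative viability is the nuclei count of treated wells over that of vehicle wells, given as the median of duplicate plates.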
# Dasatinib + Navitoclax = compound: Cc1nc(Nc2ncc(C(=O)Nc3c(C)cccc3Cl)s2)cc(N2CCN(CCO)CC2)n1 [Dasatinib] + CC1(C)CCC(c2ccc(Cl)cc2)=C(CN2CCN(c3ccc(C(=O)NS(=O)(=O)c4ccc(N[C@H](CCN5CCOCC5)CSc5ccccc5)c(S(=O)(=O)C(F)(F)F)c4)cc3)CC2)C1 [Navitoclax] (partner 0.5 µM)
# Method in brief: as §1
# ALW-II-49-7 + Olaparib = compound: Cc1ccc(C(=O)Nc2cccc(C(F)(F)F)c2)cc1Nc1cncc(C(N)=O)c1 [ALW-II-49-7] + O=C(c1cc(Cc2n[nH]c(=O)c3ccccc23)ccc1F)N1CCN(C(=O)C2CC2)CC1 [Olaparib] (partner 8 µM)
# Method in brief: as §1
# XMD13-2 + Foretinib = compound: C1CC1C(=O)NC2=NNC3=C2C=CC(=C3)C4=CC(=CC=C4)C(=O)NC5CC5 [XMD13-2] + COc1cc2c(Oc3ccc(NC(=O)C4(C(=O)Nc5ccc(F)cc5)CC4)cc3F)ccnc2cc1OCCCN1CCOCC1 [Foretinib] (partner 0.25 µM)
# Method in brief: as §1
Cell Line,relative viability (Dasatinib + OSI-027; first compound 0.005 µM),relative viability (Dasatinib + OSI-027; first compound 0.01581 µM),relative viability (Dasatinib + OSI-027; first compound 0.05 µM),relative viability (Dasatinib + OSI-027; first compound 0.1581 µM),relative viability (Dasatinib + OSI-027; first compound 0.5 µM),relative viability (Dasatinib + Navitoclax; first compound 0.005 µM),relative viability (Dasatinib + Navitoclax; first compound 0.01581 µM),relative viability (Dasatinib + Navitoclax; first compound 0.05 µM),relative viability (Dasatinib + Navitoclax; first compound 0.1581 µM),relative viability (Dasatinib + Navitoclax; first compound 0.5 µM),relative viability (ALW-II-49-7 + Olaparib; first compound 0.08 µM),relative viability (ALW-II-49-7 + Olaparib; first compound 0.253 µM),relative viability (ALW-II-49-7 + Olaparib; first compound 0.8 µM),relative viability (ALW-II-49-7 + Olaparib; first compound 2.53 µM),relative viability (ALW-II-49-7 + Olaparib; first compound 8 µM),relative viability (XMD13-2 + Foretinib; first compound 0.05 µM),relative viability (XMD13-2 + Foretinib; first compound 0.1581 µM),relative viability (XMD13-2 + Foretinib; first compound 0.5 µM),relative viability (XMD13-2 + Foretinib; first compound 1.581 µM),relative viability (XMD13-2 + Foretinib; first compound 5 µM)
HCC-44,0.65,0.754,0.466,0.337,0.273,0.93,0.916,0.98,0.761,0.436,0.928,1.04,0.995,0.957,0.935,–,–,–,–,–
HCC-78,0.317,0.361,0.267,0.326,0.257,0.619,0.58,0.688,0.601,0.247,1.02,0.77,0.767,0.625,0.738,0.541,0.539,0.502,0.51,0.487
HCC-366,0.662,0.338,0.365,0.375,0.243,0.561,0.601,0.39,0.569,0.217,0.423,0.333,0.377,0.337,0.301,1.02,0.915,0.952,0.905,0.896
HCC-827,0.805,0.745,0.557,0.456,0.119,1.01,1.01,1.01,0.719,0.188,0.624,0.625,0.59,0.542,0.59,1.11,1.04,0.951,1.05,0.704
HOP-62,0.856,0.864,0.743,0.546,0.196,1.02,1.01,0.829,1.09,0.372,0.162,0.378,0.595,–,0.172,1.11,1.13,1.19,1.06,1
IA-LM,–,–,–,–,–,0.878,0.923,1.04,0.876,0.665,0.823,0.718,0.726,0.628,0.355,1.07,1.29,1.12,1.11,0.621
LC-2-ad,0.932,0.867,0.526,0.34,0.345,0.553,0.418,0.341,0.13,0.1,0.736,0.793,0.682,0.721,0.343,1.07,1.07,0.987,0.789,0.807
LCLC-103H,0.437,0.38,0.403,0.38,0.146,–,–,–,–,–,0.724,0.79,0.771,0.714,0.762,0.759,0.726,0.735,0.61,0.575
NCI-H358,0.806,0.542,0.439,0.149,0.122,–,–,–,–,–,0.431,0.545,0.644,0.452,0.387,0.805,0.767,0.904,0.685,0.335
NCI-H522,0.72,0.69,0.643,0.596,0.632,–,–,–,–,–,0.764,0.547,0.734,0.635,0.742,–,–,–,–,–
NCI-H650,0.591,0.524,0.493,0.303,0.265,–,–,–,–,–,0.42,0.388,0.416,0.351,0.304,1.16,1.02,1.14,1.06,0.972
NCI-H661,0.686,0.604,0.586,0.522,0.402,–,–,–,–,–,0.736,0.85,0.762,0.801,0.733,1,1.06,1.04,1.02,0.875
NCI-H1299,–,–,–,–,–,1.04,1.05,1.1,0.6,0.31,0.94,0.972,0.988,0.73,0.761,1.02,1.12,1.15,1.14,1.16
NCI-H1563,0.702,0.691,0.626,0.618,0.541,–,–,–,–,–,–,–,–,–,–,0.883,1.06,0.99,0.961,0.866
NCI-H1623,0.423,0.393,0.396,0.462,0.339,–,–,–,–,–,–,–,–,–,–,0.898,0.864,0.892,0.824,0.947
NCI-H1648,0.264,0.274,0.306,0.268,0.24,–,–,–,–,–,1.52,0.684,0.656,0.48,0.808,–,–,–,–,–
NCI-H1703,–,–,–,–,–,0.567,0.38,0.238,0.17,0.146,0.492,0.398,0.358,0.245,0.245,0.303,0.411,–,0.336,0.393
NCI-H1792,0.774,0.559,0.681,0.461,0.333,0.627,0.606,0.541,0.402,0.296,0.501,0.384,0.6,0.327,0.342,–,–,–,–,–
NCI-H2342,0.563,0.503,0.518,0.403,0.36,–,–,–,–,–,0.47,0.436,0.394,0.357,0.396,0.973,1.04,1.11,0.984,1.01
SW 900,0.588,0.547,0.481,0.311,0.14,–,–,–,–,–,0.652,0.759,–,0.741,0.931,1.1,0.963,0.922,0.963,0.677
